# Data taken from US6759385B1, “Methods to treat undesirable immune responses” (Regents of the University of Minnesota, priority 1997, dated 2004).
# Tests used:
# Format in all cases: in vivo, mouse
# [1] = test system: anti-TAChR and anti-peptide IgG subclasses; experiment: ELISA of anti-TAChR and anti-peptide IgG subclasses (Example III); conditions: IL-4 KO mice, nasal α epitope pool
# Protocol: Assay of Anti-TAChR and Anti-peptide IgG Subclasses. The relative concentration of IgG subclasses of anti-TAChR and anti-peptide antibodies in the sera of peptide- and sham-treated mice was measured by ELISA after immunization with TAChR. Pooled sera from three-four mice that had received identical treatments was used. The sera used in this assay was obtained at the end of the observation period (10 weeks after beginning of the anti-TAChR immunization).
# Ninety-six well plates (Nunc, Karstrup, Denmark) were washed extensively and incubated as follows: 4 hours with a 10 μg/ml solution of TAChR or of individual peptides Tα150-169, Tα181-200 and Tα360-378 in 0.1 M Na phosphate buffer, pH 9.5 (two wells for each antigen), 1 hr with PBS plus 3% bovine serum albumin (BSA), 2 hours with mouse serum (serial dilutions from 1:100 to 1:40,000 in PBS plus 3% BSA), 1 hr with a dilution 1:1000 in PBS plus 3% BSA of goat antibody specific for the total IgG, or IgGl, or IgG2a, or IgG2b or IgG3 (Mouse Monoclonal Isotyping Kit, Sigma, St. Louis, Mo.), and 30 minutes with a 1:3000 dilution of peroxidase-conjugate rabbit anti-goat IgG (Sigma) in PBS plus 3% BSA. The plates were washed, and developed them for 20-60 minutes with ABTS peroxidase substrate system (Kirkegaard & Perry Laboratories Inc., Gaithersburg, Md.). […] The OD was read at 405 nanometers. […]
# [2] = test system: EMG in B6 mice immunized with TAChR; experiment: Nasal tolerization, EMG symptoms by pancuronium-sensitized inverted hang test (Example I)
# Protocol: Mice and Induction of Tolerance. B6 mice were purchased from Jackson Laboratory (Bar Harbor, Me.) and housed at the animal facility of the University of Minnesota. After light anesthesia by i.m. injection of Ketaset (100 mg/kg; Alveco Co., Inc., Fort Dodge, Iowa), the mice received into both nostrils a total of 25 μl of PBS containing 50 μg of peptide Tα150-169, either alone or pooled with equimolar amounts of peptides Tα180-200 and Tα360-378 (referred to as “peptide pool” or “αpool” ). The dose was based on the results of an experiment in which increasing amounts of peptide α150-169 were used (50 μg, 100 μg, 200 μg, 400 μg and 800 μg). […] The tolerogen was administered as a solution instilled into the nostrils, a method of delivery which allowed accurate administration of a defined amount of solution.
# In protocol A, peptides or peptide-free PBS were administered two weeks before the first TAChR immunization, and then three more times, on the same day as the three immunizations with TAChR (at one month intervals, see below). In protocol B, peptides or peptide-free PBS were administered weekly, starting two weeks before beginning of the immunization with TAChR, for a total of 14 treatments (two before and 12 during TAChR immunization).
# Immunization. Eight-ten week old mice were immunized by subcutaneous injections, along the back and at the base of the tail, with solubilized TAChR (50 μg), peptide Tα150-169 (100 μg), or the peptide pool (100 μg of each peptide). The mice were boosted twice at 4 week intervals with the same amouni of antigen. The antigen solutions (in 100 μl PBS) were emulsified with an equal volume of complete Freund's adjuvant (FA) for the first injection, and with incomplete FA for the boosts. Control mice were injected with PBS emulsified in the appropriate adjuvant.
# Evaluation of the Clinical Symptoms of EMG. EMG symptoms were quantified by a forced exercise using the inverted hang technique, sensitized by administration of a minute amount of pancuronium bromide (0-03 mg/kg i.p.) just prior to the beginning of the test (Karachunski et al., 1995). The mice hang from a grid, and the time it takes for the mouse to release its hold and fall three times (“holding time”) was measured. The test was performed on the day of the first nasal administration, on the day before each immunization, and 7-14 days after the third immunization, just before sacrificing the animal. This test is parametric, and gives a quantitative assessment of the severity of the weakness.
# The holding time of normal mice was 10.4±2.1 minutes (n=99). […]
# [3] = test system: EMG in IL-4 KO mice immunized with TAChR; experiment: Transfer of CD4+ cells from peptide-treated B6 mice into IL-4 KO mice, EMG; conditions: cells three times, three TAChR immunizations, 14 weeks
# Protocol: CD4^+ cells from wild type B6 mice that sniffed TACBR CD4^+ epitopes protect IL-4 KO R6 mice from development of EMG. Spleen CD4^+ cells were purified from wild type B6 mice that had sniffed a pool of the AChR a subunit peptide epitopes α50-169, α81-200 and α361-380, or peptide-free PBS (sham-treated). 10×10^6 CD4^+ cells from peptide-treated or sham-treated B6 mice to IL-4 KO B6 mice were administered i.v. (blue arrowhead in FIG. 25), just prior to a single immunization with TAChR (red arrowhead in FIG. 25). The strength of the mice was measured every 2 weeks, for 20 weeks after the TAChR immunization (FIG. 25). […] The lesser frequency of EMG as compared to the experiments described above is likely due to the use of a single immunizing injection of TAChR, or to variability in the susceptibility to EMG in different batch of IL-4 KO mice, similar to that described in other mouse strains.
# All IL-4 KO mice treated with CD4^+ cells from sham-treated B6 donors developed EMG from week four onwards (FIG. 26). […] By week 10 (i.e., two weeks after the second TAChR immunization). […]
substance,measurement,setting,value
"peptide Tα150-169: synthetic peptide corresponding to residues 150-169 of the TAChR α subunit (TYDGTKVSISPESDRPDLST; UniProt P02710 174-193, looked up, fragment)",anti-peptide IgG2a,[1],moderate synthesis of IgG2a
same,mice that developed EMG,"[2]; nasal protocol A (monthly), TAChR-immunized B6 mice",42%
same,mice with detectable weakness,"[2]; nasal protocol B (weekly), TAChR-immunized B6 mice",none
same,"protection from EMG, dose finding","[2]; nasal, lowest dose 50 μg of 50-800 μg",satisfactory level of protection
same,holding time compared with sham-tolerized mice,"[2]; nasal, protocols A and B",significantly longer holding times
same,recipients that developed EMG,[3],Only one mouse
